Measured values: US8101656B2, “Use of 2,2-dimethyl-3-(2,4-dichlorophenyl)-2-oxo-1-oxaspiro[4,5]dec-3-en-4-yl butanoate for controlling acarides” (Bayer CropScience AG, priority 2003, dated 2012)

Tests used:
Assay type in all cases: in vivo
Eotetranychus hicoriae = assay: Example D: spray test against pecan leaf scorch mite on pecan nut tree; settings: 0.313 pounds a.i. per acre
Protocol: Pest: Eotetranychus Hicoriae
The compound of the formula (I) (240 SC) was tested at an application rate of 0.313 lb a.i. per acre in comparison with ACRAMIT (Bifenazate, 50 WP) at 0.50 pound of a.i. per acre.
The spray mixture (105 gallons per acre) was applied by means of a motor-operated hand-held sprayer.
The experiment was carried out with one tree per plot and four replication experiments.
The efficacy against the pecan leaf scorch mite was determined by counting the number of live mites on five leaves per tree 6 and 13 days after the application and subsequently calculated by means of the Abbott formula.

Tetranychus urticae [1] = assay: Example A: field spray test against spider mites on hops; settings: 2000 l/ha
Protocol: Pest: Tetranychus Urticae Crop: Hops The compound of the formula (I) (240SC) was tested at a concentration of 0.0048% a.i. in comparison with cis-cyhalothrin (050EC) at 0.005% a.i. The compound of the formula (I) was used at an early stage of the infestation of the pest, while cis-cyhalothrin was applied when the infestation had progressed to a high level. The spray mixture (2000 l/ha) was applied using a knapsack sprayer operated with compressed air. The plot size was 6 plants, the number of replications per test variant was 2. The activity against spider mites was determined 4, 14 and 21 days (compound of the formula (I)) and 4, 11 and 18 days (cis-cyhalothrin) after the treatment by counting the live animals/leaf (10 leaves/plot) and calculating the efficacy using Abbott's formula.

Tetranychus urticae [2] = assay: Example C: spray test against spider mites (eggs and nymphs) on black walnut tree; settings: 0.126 pounds a.i. per acre
Protocol: Pest: Tetranychus Urticae
The compound of the formula (I) (240 SC) was tested at a concentration of 2.02 ounces a.i. per 100 gallons (=0.126 pounds a.i. per acre) in comparison with PYRAMAT (Pyridaben, 75 WP) at an application rate of 0.125 pound a.i. per acre.
The spray mixture (100 gallons per acre) was applied by means of a motor-operated hand-held sprayer.
The test was carried out with one tree per plot and three replication experiments.
The efficacy against spider mites was calculated by counting the live eggs and nymphs on eight leaves per tree before and one, two and six weeks after the application and subsequently calculated using the formula of Henderson & Tilton.

Tetranychus urticae [3] = assay: Example B: field spray test against spider mites on hops; settings: 2200 l/ha, sprayed once
Protocol: Pest: Tetranycus Urticae Crop: Hops The compound of the formula (I) (240SC) was tested at a concentration of 0.0144% a.i. in comparison with the standard Amitraz (200 EC) at 0.05% a.i. The mixture was sprayed once. The spray mixture (2200 l/ha) was applied using a trailed machine operated by a tractor. The plot size was 60 plants, and 2 replications were carried out per test variant. The activity against spider mites was determined 5, 12, 19 and 34 days after the treatment by counting the live animals/leaf (60 leaves/plot) and calculating the efficacy using Abbott's formula.

## CCC(C)(C)C(=O)OC1=C(c2ccc(Cl)cc2Cl)C(=O)OC12CCCCC2 [Compound of the formula (I) (240 SC), 2,2-Dimethyl-3-(2,4-dichlorophenyl)-2-oxo-1-oxaspiro[4.5]dec-3-en-yl butanoate]
Eotetranychus hicoriae; 6 DAA (days after application)
  Efficacy in Abbot %: 100%
Eotetranychus hicoriae; 13 DAA
  Efficacy in Abbot %: 80%
Tetranychus urticae [1]; 0.0048% a.i., applied at early stage of infestation, 4 days after treatment
  Efficacy in % Abbott: 90%
Tetranychus urticae [1]; 0.0048% a.i., applied at early stage of infestation, 14 days after treatment
  Efficacy in % Abbott: 94%
Tetranychus urticae [1]; 0.0048% a.i., applied at early stage of infestation, 21 days after treatment
  Efficacy in % Abbott: 93%
Tetranychus urticae [2]; 1 WAA
  Efficacy in Henderson&Tilton % against NYMPHS: 100%
Tetranychus urticae [2]; 1 WAA (one week after application)
  Efficacy in Henderson&Tilton % against EGGS: 100%
Tetranychus urticae [2]; 2 WAA
  Efficacy in Henderson&Tilton % against EGGS: 100%
  Efficacy in Henderson&Tilton % against NYMPHS: 100%
Tetranychus urticae [2]; 6 WAA
  Efficacy in Henderson&Tilton % against EGGS: 64%
  Efficacy in Henderson&Tilton % against NYMPHS: 83%
Tetranychus urticae [3]; 0.0144% a.i., 5 days after treatment
  Efficacy in % Abbott: 89.7%
Tetranychus urticae [3]; 0.0144% a.i., 12 days after treatment
  Efficacy in % Abbott: 98.1%
Tetranychus urticae [3]; 0.0144% a.i., 19 days after treatment
  Efficacy in % Abbott: 99.6%

## Cc1ccc(/N=C/N(C)/C=N/c2ccc(C)cc2C)c(C)c1 [Amitraz (200 EC), Amitraz, reference compound]
Tetranychus urticae [3]; 0.05% a.i., 5 days after treatment
  Efficacy in % Abbott: 80.1%
Tetranychus urticae [3]; 0.05% a.i., 12 days after treatment
  Efficacy in % Abbott: 96.3%
Tetranychus urticae [3]; 0.05% a.i., 19 days after treatment
  Efficacy in % Abbott: 92.2%

## CC1(C)C(/C=C(\Cl)C(F)(F)F)C1C(=O)OC(C#N)c1cccc(Oc2ccccc2)c1 (stereo not drawn) [Cis-cyhalothrin (050 EC), cis-cyhalothrin, reference compound]
Tetranychus urticae [1]; 0.005% a.i., applied at high level of infestation, 4 days after treatment
  Efficacy in % Abbott: 59%
Tetranychus urticae [1]; 0.005% a.i., applied at high level of infestation, 11 days after treatment
  Efficacy in % Abbott: 57%
Tetranychus urticae [1]; 0.005% a.i., applied at high level of infestation, 18 days after treatment
  Efficacy in % Abbott: 0%
